Data: ChEMBL document CHEMBL1201862, “PubChem BioAssay data set” (2004)
The source made the active and inactive calls.

Legend:
[1] = target: Voltage-gated inwardly rectifying potassium channel KCNH2 (Homo sapiens, UniProt Q12809); settings: Potency;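 also: confirmatory quantitative high-throughput screen measuring inhibition of hERG channel activity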
[2] = target: T1, Tyrosine-protein phosphatase non-receptor type 7 (Homo sapiens, UniProt P35236); experiment: HePTP (PTPN7) phosphatase inhibitor potency, SAR follow-up, biochemical, set 2 (AID 449736); format: functional
T1 sequence (P35236 whole entry): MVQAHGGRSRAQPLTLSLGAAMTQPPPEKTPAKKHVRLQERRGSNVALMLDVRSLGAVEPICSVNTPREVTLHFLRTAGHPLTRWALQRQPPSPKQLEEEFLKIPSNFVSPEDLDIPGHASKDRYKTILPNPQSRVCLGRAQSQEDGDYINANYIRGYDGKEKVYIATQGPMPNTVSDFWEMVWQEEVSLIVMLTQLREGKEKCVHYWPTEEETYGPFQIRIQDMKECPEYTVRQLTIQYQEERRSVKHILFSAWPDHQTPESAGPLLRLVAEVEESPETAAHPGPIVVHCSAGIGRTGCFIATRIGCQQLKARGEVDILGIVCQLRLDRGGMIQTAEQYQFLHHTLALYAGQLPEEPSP

[3] = target: Dual specificity protein phosphatase 3 (Homo sapiens, UniProt P51452); experiment: SAR VHR1 Fluorescent Assay for In Vitro dose response studies Set 2. [Related pubchem assays (depositor defined):AID1654, AID1661, AID1878]; format: functional
Chain of Dual specificity protein phosphatase 3 (P51452 whole entry): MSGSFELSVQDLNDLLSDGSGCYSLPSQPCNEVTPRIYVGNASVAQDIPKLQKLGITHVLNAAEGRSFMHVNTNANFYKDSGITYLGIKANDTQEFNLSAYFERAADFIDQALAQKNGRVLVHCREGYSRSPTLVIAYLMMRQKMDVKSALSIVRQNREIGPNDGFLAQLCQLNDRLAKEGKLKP

[4] = target: T2, Dual specificity protein phosphatase 6 (Rattus norvegicus, UniProt Q64346); format: functional;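 also: confirmatory in vitro dose-response testing of MKP-3 inhibition; recombinant His-tagged MKP-3 made in E. coli BL21 with OMFP substrate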
T2 sequence (Q64346 whole entry): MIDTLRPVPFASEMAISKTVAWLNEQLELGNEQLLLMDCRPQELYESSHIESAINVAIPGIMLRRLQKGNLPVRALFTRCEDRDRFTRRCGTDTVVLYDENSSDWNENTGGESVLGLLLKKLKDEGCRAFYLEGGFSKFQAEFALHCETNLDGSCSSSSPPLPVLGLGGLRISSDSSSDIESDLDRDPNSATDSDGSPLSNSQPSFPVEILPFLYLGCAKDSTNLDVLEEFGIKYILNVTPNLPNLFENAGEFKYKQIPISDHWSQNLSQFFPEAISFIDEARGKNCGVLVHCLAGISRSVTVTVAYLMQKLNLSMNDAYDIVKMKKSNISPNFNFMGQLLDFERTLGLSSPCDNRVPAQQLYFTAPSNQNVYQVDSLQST

[5] = target: T3, Tyrosine-protein phosphatase non-receptor type 22 (Homo sapiens, UniProt Q9Y2R2); experiment: SAR LYP1 Fluorescent Assay using OMFP substrate for In Vitro dose response studies - Set 3. [Related pubchem assays (depositor defined):AID1779, AID1784, AID2140, AID2686]; format: functional
T3 sequence (Q9Y2R2 whole entry): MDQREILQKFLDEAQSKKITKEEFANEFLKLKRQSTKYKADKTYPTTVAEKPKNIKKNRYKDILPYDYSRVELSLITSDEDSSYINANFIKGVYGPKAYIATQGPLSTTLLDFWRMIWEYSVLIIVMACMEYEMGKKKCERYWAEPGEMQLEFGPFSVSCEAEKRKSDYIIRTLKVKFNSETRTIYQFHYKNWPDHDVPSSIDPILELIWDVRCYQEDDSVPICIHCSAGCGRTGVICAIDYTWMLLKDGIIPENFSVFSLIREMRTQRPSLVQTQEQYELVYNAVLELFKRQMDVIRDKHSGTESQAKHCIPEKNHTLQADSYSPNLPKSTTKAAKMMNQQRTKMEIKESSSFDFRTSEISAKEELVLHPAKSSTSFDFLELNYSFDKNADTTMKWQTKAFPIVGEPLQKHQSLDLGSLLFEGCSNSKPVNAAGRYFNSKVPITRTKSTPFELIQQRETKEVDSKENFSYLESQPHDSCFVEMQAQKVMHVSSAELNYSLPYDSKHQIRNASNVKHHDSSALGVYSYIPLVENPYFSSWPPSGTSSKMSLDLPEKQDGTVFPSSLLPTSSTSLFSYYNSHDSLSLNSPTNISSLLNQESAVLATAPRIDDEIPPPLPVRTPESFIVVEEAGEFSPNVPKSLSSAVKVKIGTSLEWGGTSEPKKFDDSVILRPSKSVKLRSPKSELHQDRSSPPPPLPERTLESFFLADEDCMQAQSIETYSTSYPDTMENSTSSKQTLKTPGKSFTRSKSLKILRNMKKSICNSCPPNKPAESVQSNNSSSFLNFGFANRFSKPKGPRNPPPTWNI

[6] = target: T1, Tyrosine-protein phosphatase non-receptor type 7; experiment: redox-dependent HePTP inhibition, mechanism study, biochemical, fluorescence (AID 2068); format: functional
[7] = target: Tyrosine-protein phosphatase non-receptor type 12 (Homo sapiens, UniProt Q05209); experiment: SAR Selectivity Analysis of small molecule inhibitors of PEST using pCAP in a fluorescence assay. [Related pubchem assays (depositor defined):AID1779, AID1784, AID2135]; format: functional
Chain of Tyrosine-protein phosphatase non-receptor type 12 (Q05209 whole entry): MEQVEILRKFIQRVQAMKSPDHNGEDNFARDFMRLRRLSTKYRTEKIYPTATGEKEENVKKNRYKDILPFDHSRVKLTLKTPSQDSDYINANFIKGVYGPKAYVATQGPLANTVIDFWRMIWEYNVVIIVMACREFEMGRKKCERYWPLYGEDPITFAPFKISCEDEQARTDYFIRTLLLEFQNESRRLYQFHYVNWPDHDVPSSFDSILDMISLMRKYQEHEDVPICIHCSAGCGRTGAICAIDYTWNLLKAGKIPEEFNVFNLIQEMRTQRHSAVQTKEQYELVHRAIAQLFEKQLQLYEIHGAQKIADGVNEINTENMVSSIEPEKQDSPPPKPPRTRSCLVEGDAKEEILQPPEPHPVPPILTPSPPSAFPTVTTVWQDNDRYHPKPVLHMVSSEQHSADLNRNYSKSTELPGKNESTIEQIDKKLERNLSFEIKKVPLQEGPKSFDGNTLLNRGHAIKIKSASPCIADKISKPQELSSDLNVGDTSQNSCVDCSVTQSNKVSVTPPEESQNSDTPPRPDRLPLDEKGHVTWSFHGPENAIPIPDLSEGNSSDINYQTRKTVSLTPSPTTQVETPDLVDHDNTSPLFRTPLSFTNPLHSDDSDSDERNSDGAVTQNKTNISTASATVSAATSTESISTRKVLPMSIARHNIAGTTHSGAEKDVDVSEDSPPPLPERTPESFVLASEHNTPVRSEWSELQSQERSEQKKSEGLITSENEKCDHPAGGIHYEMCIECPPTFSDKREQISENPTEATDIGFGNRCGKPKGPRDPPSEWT

[8] = target: T3, Tyrosine-protein phosphatase non-receptor type 22; experiment: LYP (PTPN22) phosphatase inhibitor potency, SAR follow-up, biochemical, pCAP fluorogenic substrate, fluorescence, set 3 (AID 449727); format: functional
[9] = cytotoxicity in KRAS-transformed pancreatic duct cells, primary screen, cell-based, fluorescence, HTS (AID 431); format: functional; settings: Homo sapiens;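 also: cell line used: HPDE-C7K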
[10] = cytotoxicity toward NIH3T3 fibroblasts, dose response, counter-screen, cell-based, ATP luminescence, mouse fibroblasts (AID 2010); format: functional;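 also: cells exposed to compound for about 90 hours before reading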
[11] = growth suppression of beta-catenin-knockout colon cells, dose response, cell-based, HCT116, human colon tumor (AID 1045); format: functional;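 also: HCT116 colon tumor cells with beta catenin knocked out; cells exposed to compound for 60 hours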
[12] = tested on: Jurkat; experiment: antigen receptor-induced NF-kB inhibitors, dose response, Jurkat, luciferase reporter, luminescence, B- and T-cell (AID 489004); format: functional, cell-based; settings: Homo sapiens;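 also: NF-kB luciferase reporter Jurkat cells stimulated with PMA plus ionomycin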
[13] = cytotoxicity in HPDE-C7 cells, cell-based, fluorescence, HTS (AID 430); format: functional; settings: Homo sapiens
[14] = target: Melanocortin receptor 4 (Homo sapiens, UniProt P32245); experiment: MC4R antagonist potency on cAMP, dose response, cell-based, TR-FRET, biased antagonists (AID 602298); format: functional;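 also: antagonist potency against agonist-stimulated cAMP production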
Chain of Melanocortin receptor 4 (P32245 whole entry): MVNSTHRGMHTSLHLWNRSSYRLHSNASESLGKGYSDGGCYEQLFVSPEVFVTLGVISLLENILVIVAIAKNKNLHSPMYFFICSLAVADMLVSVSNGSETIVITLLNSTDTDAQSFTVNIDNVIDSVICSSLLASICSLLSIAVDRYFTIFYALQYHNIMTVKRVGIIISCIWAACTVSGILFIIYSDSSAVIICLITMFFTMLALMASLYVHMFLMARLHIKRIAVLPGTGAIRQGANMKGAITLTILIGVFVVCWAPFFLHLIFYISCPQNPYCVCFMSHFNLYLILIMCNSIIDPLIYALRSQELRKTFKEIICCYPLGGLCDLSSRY

[15] = cytotoxicity in HEK-293T NF-kB-Luc cells, dose response, cytotoxicity control for B/T-cell NF-kB inhibitor project, cell-based, uHTS hits (AID 489019); format: functional;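 also: IC50 reflects cytotoxicity as loss of cell viability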
[16] = nonselective inhibitors of cellular cAMP signaling, dose response, counter-screen for MC4R biased antagonist project, cell-based, TR-FRET cAMP detection (AID 602305); format: functional;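 also: U2OS cells stimulated with forskolin near its EC80 as the cAMP inducer; potency is for inhibition of forskolin-stimulated cAMP signaling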
[17] = growth suppression of PTEN-null colon cells, dose response, cell-based, HCT116 PTEN knockout (AID 1047); format: functional;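 also: HCT116 colon tumor cells with PTEN knocked out; cells exposed to compound for 60 hours before readout; potency for loss of cell viability measured by luminescence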
[18] = inhibitors of intracellular T. cruzi replication, confirmation, NIH3T3 host cells, beta-gal luminescence (AID 2044); format: functional, cell-based;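 also: intracellular parasites grown in NIH/3T3 mouse fibroblasts as host cells; luminescent beta-galactosidase reporter signal from transgenic T. cruzi replicating inside host cells; inhibitors lower the luminescence signal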
[19] = target: T4, Protein RecA (Mycobacterium tuberculosis, UniProt P9WHJ3); experiment: Fluorescence Cell-Free Homogeneous Dose Retest to Identify Inhibitors of RecA-Intein Splicing Activity. [Related pubchem assays (depositor defined):AID2097, AID2223, AID489010, AID492950]; format: functional
T4 sequence (P9WHJ3 whole entry): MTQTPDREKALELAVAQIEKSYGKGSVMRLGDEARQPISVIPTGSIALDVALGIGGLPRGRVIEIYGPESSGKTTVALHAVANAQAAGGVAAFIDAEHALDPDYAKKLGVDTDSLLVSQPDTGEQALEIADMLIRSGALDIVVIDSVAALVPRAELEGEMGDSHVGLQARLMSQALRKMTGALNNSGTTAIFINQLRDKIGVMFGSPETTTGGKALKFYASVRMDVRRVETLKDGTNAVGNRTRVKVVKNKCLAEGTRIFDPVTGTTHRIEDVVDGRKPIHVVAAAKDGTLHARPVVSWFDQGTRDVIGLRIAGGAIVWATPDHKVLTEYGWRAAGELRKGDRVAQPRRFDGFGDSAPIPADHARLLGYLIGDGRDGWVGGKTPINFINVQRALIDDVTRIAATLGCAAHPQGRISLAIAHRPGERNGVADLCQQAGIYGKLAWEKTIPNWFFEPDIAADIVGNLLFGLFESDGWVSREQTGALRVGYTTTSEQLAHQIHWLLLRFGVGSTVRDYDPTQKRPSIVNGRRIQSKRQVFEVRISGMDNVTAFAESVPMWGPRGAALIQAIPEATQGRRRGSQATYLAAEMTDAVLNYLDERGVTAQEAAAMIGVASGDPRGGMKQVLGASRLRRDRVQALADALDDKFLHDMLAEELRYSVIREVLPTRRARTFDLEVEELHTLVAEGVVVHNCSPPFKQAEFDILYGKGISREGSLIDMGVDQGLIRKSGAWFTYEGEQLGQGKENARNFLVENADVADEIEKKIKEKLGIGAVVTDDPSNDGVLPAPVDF

[20] = target: T5, Ubiquitin-conjugating enzyme E2 N (Homo sapiens, UniProt P61088); format: functional;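 also: Dose-response confirmation in a TR-FRET assay detecting UBC13-driven polyubiquitin chain formation, inhibition measured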
T5 sequence (P61088 whole entry): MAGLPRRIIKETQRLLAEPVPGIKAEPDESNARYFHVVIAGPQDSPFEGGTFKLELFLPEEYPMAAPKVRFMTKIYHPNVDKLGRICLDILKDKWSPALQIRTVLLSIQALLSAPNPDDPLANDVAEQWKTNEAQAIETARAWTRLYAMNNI

[21] = target: T6, Replicative DNA helicase DnaB (Mycobacterium tuberculosis, UniProt P9WMR3); experiment: DnaB intein splicing inhibitors, dose response, biochemical, cell-free fluorescence (AID 449749); format: functional
T6 sequence (P9WMR3 whole entry): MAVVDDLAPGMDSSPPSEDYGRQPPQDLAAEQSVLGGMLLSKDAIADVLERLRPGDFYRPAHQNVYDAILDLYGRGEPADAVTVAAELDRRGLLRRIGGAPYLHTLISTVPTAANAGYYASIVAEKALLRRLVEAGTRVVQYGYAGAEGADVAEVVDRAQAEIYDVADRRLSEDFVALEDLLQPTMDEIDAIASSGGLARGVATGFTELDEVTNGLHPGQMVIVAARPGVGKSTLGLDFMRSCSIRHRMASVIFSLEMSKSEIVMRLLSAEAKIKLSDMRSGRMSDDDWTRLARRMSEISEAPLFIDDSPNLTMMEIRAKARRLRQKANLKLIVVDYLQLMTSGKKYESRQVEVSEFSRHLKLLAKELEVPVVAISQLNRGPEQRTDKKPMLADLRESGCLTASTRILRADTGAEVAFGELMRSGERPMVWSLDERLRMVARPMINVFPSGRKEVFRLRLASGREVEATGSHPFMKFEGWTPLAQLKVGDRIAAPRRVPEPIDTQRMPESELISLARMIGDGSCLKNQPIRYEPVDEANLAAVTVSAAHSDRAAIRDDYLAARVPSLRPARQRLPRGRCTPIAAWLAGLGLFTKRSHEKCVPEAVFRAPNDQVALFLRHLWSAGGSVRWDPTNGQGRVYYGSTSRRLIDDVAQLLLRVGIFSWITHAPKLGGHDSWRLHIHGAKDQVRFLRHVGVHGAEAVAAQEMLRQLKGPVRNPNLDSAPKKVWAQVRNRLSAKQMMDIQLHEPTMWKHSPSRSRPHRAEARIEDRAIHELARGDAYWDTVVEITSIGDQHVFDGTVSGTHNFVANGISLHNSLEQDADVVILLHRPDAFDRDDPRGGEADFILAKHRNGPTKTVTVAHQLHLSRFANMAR

[22] = target: CAAX prenyl protease 1 (Saccharomyces cerevisiae S288c, UniProt P47154); experiment: Ste24 protease inhibitors, dose response, biochemical, S. cerevisiae, plate reader, cherry-pick (AID 488815)
Chain of CAAX prenyl protease 1 (P47154 whole entry): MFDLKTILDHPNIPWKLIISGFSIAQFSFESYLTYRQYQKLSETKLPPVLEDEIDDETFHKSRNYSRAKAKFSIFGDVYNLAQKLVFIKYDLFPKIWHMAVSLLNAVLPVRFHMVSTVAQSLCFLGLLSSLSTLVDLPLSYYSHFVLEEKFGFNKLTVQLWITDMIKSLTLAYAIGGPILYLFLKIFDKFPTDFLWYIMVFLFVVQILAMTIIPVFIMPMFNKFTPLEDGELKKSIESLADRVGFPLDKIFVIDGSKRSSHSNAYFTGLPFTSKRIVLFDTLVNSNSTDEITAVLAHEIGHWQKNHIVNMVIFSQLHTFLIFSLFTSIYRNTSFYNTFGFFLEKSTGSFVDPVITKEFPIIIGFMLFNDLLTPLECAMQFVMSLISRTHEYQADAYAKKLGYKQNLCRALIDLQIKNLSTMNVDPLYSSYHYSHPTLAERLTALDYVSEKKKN

[23] = Luminescence Cell-Based Dose Retest to Confirm Inhibitors of Cancer Stem Cells. [Related pubchem assays (depositor defined):AID2717, AID2721]; format: functional; settings: Homo sapiens

Chain of Voltage-gated inwardly rectifying potassium channel KCNH2 (Q12809 whole entry): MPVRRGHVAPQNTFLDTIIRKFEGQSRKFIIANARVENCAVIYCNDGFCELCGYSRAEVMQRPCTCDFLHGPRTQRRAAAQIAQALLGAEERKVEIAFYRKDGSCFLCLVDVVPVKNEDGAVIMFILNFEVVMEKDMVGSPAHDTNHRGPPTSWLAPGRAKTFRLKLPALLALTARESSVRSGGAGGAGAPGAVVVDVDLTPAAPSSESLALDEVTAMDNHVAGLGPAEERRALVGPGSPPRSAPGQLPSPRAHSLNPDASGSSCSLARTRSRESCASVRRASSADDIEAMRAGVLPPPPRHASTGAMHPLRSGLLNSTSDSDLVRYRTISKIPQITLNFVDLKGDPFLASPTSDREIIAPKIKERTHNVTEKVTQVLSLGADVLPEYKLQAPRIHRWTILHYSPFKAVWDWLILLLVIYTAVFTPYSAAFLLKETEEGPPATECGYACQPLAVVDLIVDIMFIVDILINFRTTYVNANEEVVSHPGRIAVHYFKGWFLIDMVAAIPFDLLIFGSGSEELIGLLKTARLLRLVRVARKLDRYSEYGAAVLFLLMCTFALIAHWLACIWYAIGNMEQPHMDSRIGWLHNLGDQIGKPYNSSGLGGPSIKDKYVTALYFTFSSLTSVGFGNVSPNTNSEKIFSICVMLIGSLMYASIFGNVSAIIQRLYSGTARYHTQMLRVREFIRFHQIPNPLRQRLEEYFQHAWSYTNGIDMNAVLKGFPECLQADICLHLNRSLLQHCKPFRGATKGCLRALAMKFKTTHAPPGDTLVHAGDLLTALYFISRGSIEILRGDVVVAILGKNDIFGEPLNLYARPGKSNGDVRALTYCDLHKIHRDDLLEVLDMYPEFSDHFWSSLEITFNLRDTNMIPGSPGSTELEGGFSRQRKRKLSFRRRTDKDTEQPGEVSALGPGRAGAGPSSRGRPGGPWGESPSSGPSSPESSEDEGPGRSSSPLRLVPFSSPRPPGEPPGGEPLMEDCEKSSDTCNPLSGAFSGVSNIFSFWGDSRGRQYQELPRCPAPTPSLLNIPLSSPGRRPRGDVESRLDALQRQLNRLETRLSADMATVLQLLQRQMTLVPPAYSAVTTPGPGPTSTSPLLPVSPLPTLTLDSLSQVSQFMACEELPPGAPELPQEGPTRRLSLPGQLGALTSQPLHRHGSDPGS

C=CCN1CC[C@]23CCCCC2[C@H]1Cc1ccc(O)cc13 (stereo partly drawn)
AC50 [1]: 2.24 µM (inconclusive)

CCOc1cc(/C=C2/S/C(=N\c3ccccc3)NC2=O)cc(I)c1OCC(=O)O
IC50 [2]: 2.33 µM (active) | IC50 [3]: 33.8 µM (active) | IC50 [4]: > 100 µM (inactive) | IC50 [5]: 56.6 µM (active) | IC50 [6]: 6.03 µM (active) | IC50 [7]: 7.6 µM (active) | IC50 [8]: 30.2 µM (active)

N=c1c2c(-c3ccccc3)c(-c3ccccc3)n(Cc3ccccc3)c2ncn1CCCn1ccnc1
EC50 [9]: 17 µM (active) | EC50 [10]: 7.16 µM (active) | EC50 [11]: 0.613 µM (active) | IC50 [12]: 8.3 µM (active) | EC50 [13]: 5.47 µM (active) | IC50 [14]: > 64.6 µM (inactive) | IC50 [15]: 43.2 µM (inactive) | IC50 [16]: > 64.6 µM (inactive) | EC50 [17]: 0.85 µM (active) | EC50 [18]: 2.44 µM (active)

CCN(Cc1ccccc1)S(=O)(=O)c1ccc(C(=O)N(CCCN(C)C)c2nc3cc(C)cc(C)c3s2)cc1
EC50 [19]: 17.7 µM (active) | IC50 [20]: > 20 µM (inactive) | AC50 [21]: 7.04 µM (active) | AC50 [22]: 17 µM (active) | AC50 [23]: 4.44 µM (active)
